For this assay, the target named is T1, Met receptor (EGFR/Met chimeric cells, EMR) (Homo sapiens, UniProt P08581).
T1 construct: expressed in transfected cells; the other entry of the earlier key: EGFR (P00533, Epidermal growth factor receptor)
Nature of the assay: Met Autophosphorylation Assay. It is filed as biochemical. An outline of the steps:
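Met phosphorylation was measured by capture ELISA. Lysates (90 μg/100 μl, HNTG plus 1 mM PMSF) from transiently transfected EGFR/Met chimera (EMR) cells were bound for 60 min at room temperature to wells holding rabbit anti-Met (C-28) on goat anti-rabbit coat. Phosphotyrosine was the read-out.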

T1 sequence (P08581 with tags, fused parts or gaps): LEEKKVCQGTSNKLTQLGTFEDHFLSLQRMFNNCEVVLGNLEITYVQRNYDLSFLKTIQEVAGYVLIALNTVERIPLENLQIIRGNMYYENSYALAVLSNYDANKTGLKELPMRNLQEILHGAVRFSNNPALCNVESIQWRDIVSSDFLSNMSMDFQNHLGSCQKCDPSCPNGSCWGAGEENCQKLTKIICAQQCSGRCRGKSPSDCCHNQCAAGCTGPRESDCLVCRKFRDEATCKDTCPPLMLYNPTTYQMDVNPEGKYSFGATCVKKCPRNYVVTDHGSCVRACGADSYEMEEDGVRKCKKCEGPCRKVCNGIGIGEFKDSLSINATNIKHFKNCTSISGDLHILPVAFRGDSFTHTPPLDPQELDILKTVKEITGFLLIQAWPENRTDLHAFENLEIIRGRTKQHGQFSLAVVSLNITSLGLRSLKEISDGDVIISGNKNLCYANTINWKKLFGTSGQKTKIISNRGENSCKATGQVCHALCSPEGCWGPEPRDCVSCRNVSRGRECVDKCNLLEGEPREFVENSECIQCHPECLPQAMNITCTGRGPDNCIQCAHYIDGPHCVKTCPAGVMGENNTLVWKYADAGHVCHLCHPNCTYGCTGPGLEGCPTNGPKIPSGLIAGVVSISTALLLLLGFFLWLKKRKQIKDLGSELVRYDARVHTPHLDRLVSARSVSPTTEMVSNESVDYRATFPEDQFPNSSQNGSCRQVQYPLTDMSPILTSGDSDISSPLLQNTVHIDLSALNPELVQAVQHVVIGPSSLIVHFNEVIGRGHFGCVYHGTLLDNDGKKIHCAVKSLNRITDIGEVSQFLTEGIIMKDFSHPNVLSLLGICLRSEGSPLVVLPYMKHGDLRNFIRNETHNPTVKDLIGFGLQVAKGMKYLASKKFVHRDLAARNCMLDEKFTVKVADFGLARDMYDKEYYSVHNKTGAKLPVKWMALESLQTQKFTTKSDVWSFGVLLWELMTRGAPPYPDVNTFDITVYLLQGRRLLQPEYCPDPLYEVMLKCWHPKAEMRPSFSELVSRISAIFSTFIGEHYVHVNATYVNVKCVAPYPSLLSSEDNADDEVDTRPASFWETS

On to `O=C1Nc2ccc(S(=O)(=O)Nc3ccc(C(F)(F)F)cc3)cc2C1=Cc1cc(Cl)cc(Cl)c1O` [10734/E03], for which the “Met Kinase % Inhibition (P.130)” value stood at 99.3%.

For `O=C1Nc2ccc(S(=O)(=O)Nc3ccc(C(F)(F)F)cc3)cc2C1=Cc1cc(Cl)ccc1O` [10734/E04], the “Met Kinase % Inhibition (P.130)” value was 88.9%.

Consider `CCN(CC)c1ccc(C=C2C(=O)Nc3ccc(S(=O)(=O)Nc4ccc(C(F)(F)F)cc4)cc32)c(O)c1` [10734/E05], for which the “Met Kinase % Inhibition (P.130)” value is given as 63.6%.

For the molecule `O=C1Nc2ccc(S(=O)(=O)Nc3ccc(C(F)(F)F)cc3)cc2C1=Cc1ccc([N+](=O)[O-])cc1` [10734/E06], the “Met Kinase % Inhibition (P.130)” value was 50.6%.

Consider `O=C1Nc2ccc(S(=O)(=O)Nc3ccc(C(F)(F)F)cc3)cc2C1=Cc1cc(Br)cc(Br)c1O` [10734/E07], for which the “Met Kinase % Inhibition (P.130)” value is reported as 100.8%.

Regarding `O=C1Nc2ccc(S(=O)(=O)Nc3ccc(C(F)(F)F)cc3)cc2C1=Cc1cccc(F)c1O` [10734/E08], the “Met Kinase % Inhibition (P.130)” value came to 89.1%.

On to `O=C1Nc2ccc(S(=O)(=O)Nc3ccc(C(F)(F)F)cc3)cc2C1=Cc1ccc(O)c(Br)c1` [10734/E09], for which the “Met Kinase % Inhibition (P.130)” value is recorded as 96.2%.

Consider `CC(C)(C)c1ccc(C=C2C(=O)Nc3ccc(S(=O)(=O)Nc4ccc(C(F)(F)F)cc4)cc32)cc1` [10734/E10], for which the “Met Kinase % Inhibition (P.130)” value came to 27.9%.

For `O=C1Nc2ccc(S(=O)(=O)Nc3ccc(C(F)(F)F)cc3)cc2C1=Cc1ccc(Br)s1` [10734/E11], the “Met Kinase % Inhibition (P.130)” value worked out at 67.1%.

Take `CCOc1cccc(C=C2C(=O)Nc3ccc(S(=O)(=O)N4CCOCC4)cc32)c1O` [10734/F02]: the “Met Kinase % Inhibition (P.130)” value was determined as 55.0%.

Turning to `O=C1Nc2ccc(S(=O)(=O)N3CCOCC3)cc2C1=Cc1cc(Cl)cc(Cl)c1O` [10734/F03], the “Met Kinase % Inhibition (P.130)” value is listed as 86.8%.

Regarding `O=C1Nc2ccc(S(=O)(=O)N3CCOCC3)cc2C1=Cc1cc(Cl)ccc1O` [10734/F04], the “Met Kinase % Inhibition (P.130)” value amounted to 76.5%.

For `CCN(CC)c1ccc(C=C2C(=O)Nc3ccc(S(=O)(=O)N4CCOCC4)cc32)c(O)c1` [10734/F05], the “Met Kinase % Inhibition (P.130)” value was 73.8%.

With `O=C1Nc2ccc(S(=O)(=O)N3CCOCC3)cc2C1=Cc1ccc([N+](=O)[O-])cc1` [10734/F06], the “Met Kinase % Inhibition (P.130)” value is 64.2%.

`O=C1Nc2ccc(S(=O)(=O)N3CCOCC3)cc2C1=Cc1cc(Br)cc(Br)c1O` [10734/F07]: the “Met Kinase % Inhibition (P.130)” value is 95.7%.

On to `O=C1Nc2ccc(S(=O)(=O)N3CCOCC3)cc2C1=Cc1cccc(F)c1O` [10734/F08], for which the “Met Kinase % Inhibition (P.130)” value turned out to be 66.3%.

As for `O=C1Nc2ccc(S(=O)(=O)N3CCOCC3)cc2C1=Cc1ccc(O)c(Br)c1` [10734/F09], the “Met Kinase % Inhibition (P.130)” value is 93.9%.

For `CC(C)(C)c1ccc(C=C2C(=O)Nc3ccc(S(=O)(=O)N4CCOCC4)cc32)cc1` [10734/F10], the “Met Kinase % Inhibition (P.130)” value worked out at 44.8%.

Consider `O=C1Nc2ccc(S(=O)(=O)N3CCOCC3)cc2C1=Cc1ccc(Br)s1` [10734/F11], for which the “Met Kinase % Inhibition (P.130)” value stood at 47.3%.

Consider `CCOc1cccc(C=C2C(=O)Nc3ccc(CCCl)cc32)c1O` [10734/G02], for which the “Met Kinase % Inhibition (P.130)” value was determined as 63.6%.

As for `O=C1Nc2ccc(CCCl)cc2C1=Cc1cc(Cl)cc(Cl)c1O` [10734/G03], the “Met Kinase % Inhibition (P.130)” value was determined as 93.4%.

For the molecule `O=C1Nc2ccc(CCCl)cc2C1=Cc1cc(Cl)ccc1O` [10734/G04], the “Met Kinase % Inhibition (P.130)” value stood at 72.1%.

Regarding `CCN(CC)c1ccc(C=C2C(=O)Nc3ccc(CCCl)cc32)c(O)c1` [10734/G05], the “Met Kinase % Inhibition (P.130)” value worked out at 57.7%.

In the case of `O=C1Nc2ccc(CCCl)cc2C1=Cc1ccc([N+](=O)[O-])cc1` [10734/G06], the “Met Kinase % Inhibition (P.130)” value turned out to be 43.1%.

For `O=C1Nc2ccc(CCCl)cc2C1=Cc1cc(Br)cc(Br)c1O` [10734/G07], the “Met Kinase % Inhibition (P.130)” value was 96.6%.

With `O=C1Nc2ccc(CCCl)cc2C1=Cc1cccc(F)c1O` [10734/G08], the “Met Kinase % Inhibition (P.130)” value stood at 82.2%.

`O=C1Nc2ccc(CCCl)cc2C1=Cc1ccc(O)c(Br)c1` [10734/G09]: the “Met Kinase % Inhibition (P.130)” value came to 84.7%.

On to `CC(C)(C)c1ccc(C=C2C(=O)Nc3ccc(CCCl)cc32)cc1` [10734/G10], for which the “Met Kinase % Inhibition (P.130)” value is given as 19.3%.

Take `O=C1Nc2ccc(CCCl)cc2C1=Cc1ccc(Br)s1` [10734/G11]: the “Met Kinase % Inhibition (P.130)” value was 20.2%.

With `CCOc1cccc(C=C2C(=O)Nc3c(Br)cc(Br)c(C)c32)c1O` [10734/H02], the “Met Kinase % Inhibition (P.130)” value was determined as 48.3%.

For the molecule `Cc1c(Br)cc(Br)c2c1C(=Cc1cc(Cl)cc(Cl)c1O)C(=O)N2` [10734/H03], the “Met Kinase % Inhibition (P.130)” value was 90.3%.

With `Cc1c(Br)cc(Br)c2c1C(=Cc1cc(Cl)ccc1O)C(=O)N2` [10734/H04], the “Met Kinase % Inhibition (P.130)” value was 64.2%.

The values above are taken from patent US20020026053A1, “Novel 3-(substituted) -2- indolinones compounds and use thereof as inhibitors of protein kinase activity” (priority 1997, published 2002).
